Target: T1, human OX2 receptor (Homo sapiens, UniProt O43614)
T1 construct: expressed in transfected cells
T1 sequence (O43614 1-444): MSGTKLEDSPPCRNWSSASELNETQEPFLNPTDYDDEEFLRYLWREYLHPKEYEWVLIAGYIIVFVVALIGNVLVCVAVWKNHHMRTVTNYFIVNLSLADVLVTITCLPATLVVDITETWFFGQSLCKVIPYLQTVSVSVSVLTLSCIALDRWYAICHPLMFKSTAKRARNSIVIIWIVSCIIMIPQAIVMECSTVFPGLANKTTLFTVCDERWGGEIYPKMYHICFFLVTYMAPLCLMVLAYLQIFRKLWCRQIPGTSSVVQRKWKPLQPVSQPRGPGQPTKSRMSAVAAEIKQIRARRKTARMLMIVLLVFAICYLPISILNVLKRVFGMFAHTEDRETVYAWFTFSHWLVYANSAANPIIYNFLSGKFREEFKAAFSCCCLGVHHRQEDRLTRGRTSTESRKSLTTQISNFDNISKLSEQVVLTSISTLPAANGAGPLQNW
Assay: Measurement of orexin type 2 receptor agonist activity (Fluo-4 calcium fluorescence, FDSS)
Format: cell-based
Details: compound at 3 μM; CHO cells forcibly expressing human OX2 receptor; DMSO = 0%, orexin A (human) 10 nM = 100%
Text: Experimental Example 1: Obtainment of Cell Stably Expressing Human Orexin Type 2 Receptor (hOX2R)
To obtain a cell clone stably expressing human orexin type 2 receptor, human orexin type 2 receptor cDNA was inserted into pcDNA3.1(+) plasmid vector (Invitrogen), and a plasmid DNA for expression of human orexin type 2 receptor (pcDNA3.1(+)/hOX2R) was cloned. The plasmid DNA was introduced into CHO-dhfr cell by an electroporation method, and human orexin type 2 receptor expressing clone cells were obtained by limiting dilution method by using G418 drug resistance as a selection marker.
Experimental Example 2: Measurement of Orexin Type 2 Receptor Agonist Activity
CHO cells forcibly expressing human OX2 receptor were seeded in each well of 384 well black transparent bottom plate (BD Falcon) at 7,500 cells/well, and cultured for one day in a 5% CO2 incubator at 37° C. After removal of the medium in the cell plate, assay buffer A containing a calcium indicator (HESS (Life Technologies), 20 mM HEPES (Life Technologies), 0.1% BSA (Wako Pure Chemical Industries, Ltd.), 2.5 μg/mL Fluo-4 AM (DOJINDO Chemical), 0.08% Pluronic F127 (DOJINDO Chemical), 1.25 mM probenecid (DOJINDO Chemical)) was added at 30 μL/well. The plate was stood for 30 min in a 5% CO2 incubator at 37° C., and further stood at room temperature for 30 min. A test compound prepared by diluting with assay buffer B (HESS, 20 mM HEPES, 0.1% BSA) was added at 10 μL/well, and the fluorescence value was measured by FDSSμCELL (Hamamatsu Photonics K.K.) every one sec for 1 min, and thereafter every two sec for 1 min 40 sec. The activity (%) of the test compound was calculated assuming that variation in the fluorescence value when DMSO was added instead of the test compound was 0% […], and variation in the fluorescence value when orexin A (human) (PEPTIDE INSTITUTE, INC.) was added at the final concentration of 10 nM was 100% […]. The activity of each compound at the concentration of 3 μM was shown below.

Compound | OX2R agonist activity (3 μM, %) [%]
COc1ccc(-c2cccc(C(=O)N(C)C)c2)cc1S(=O)(=O)Nc1cccc(O[C@H]2CCN(C(=O)c3ccccc3C)C2)c1 [Example 7, 4′-methoxy-N,N-dimethyl-3′-((3-(((3S)-1-(2-methylbenzoyl)pyrrolidin-3-yl)oxy)phenyl)sulfamoyl)biphenyl-3-carboxamide] | 92
COc1ccc(-c2cccc(C(=O)N(C)C)c2)cc1S(=O)(=O)Nc1cccc(O[C@H]2CCN(C(=O)c3ccccc3N(C)C)C2)c1 [Example 9, 3′-((3-(((3S)-1-(2-(dimethylamino)benzoyl)pyrrolidin-3-yl)oxy)phenyl)sulfamoyl)-4′-methoxy-N,N-dimethylbiphenyl-3-carboxamide] | 91
COc1ccc(-c2cccc(C(=O)N(C)C)c2)cc1S(=O)(=O)Nc1cccc(O[C@H]2CCN(C(=O)c3c(C)cccc3C)C2)c1 [Example 10, 3′-((3-(((3S)-1-(2,6-dimethylbenzoyl)pyrrolidin-3-yl)oxy)phenyl)sulfamoyl)-4′-methoxy-N,N-dimethylbiphenyl-3-carboxamide] | 106
COc1ccc(-c2cccc(C(=O)N(C)C)c2)cc1S(=O)(=O)Nc1cccc(O[C@H]2CCN(C(=O)C3CCCCO3)C2)c1 (stereo partly drawn) [Example 14, 4′-methoxy-N,N-dimethyl-3′-((3-(((3S)-1-(tetrahydro-2H-pyran-2-ylcarbonyl)pyrrolidin-3-yl)oxy)phenyl)sulfamoyl)biphenyl-3-carboxamide] | 95
COc1ccc(-c2cccc(C(=O)N(C)C)c2)cc1S(=O)(=O)Nc1cccc(O[C@H]2CCN(C(=O)C3(c4ccccc4)CC3)C2)c1 [Example 16, 4′-methoxy-N,N-dimethyl-3′-((3-(((3S)-1-((1-phenylcyclopropyl)carbonyl)pyrrolidin-3-yl)oxy)phenyl)sulfamoyl)biphenyl-3-carboxamide] | 99
COc1ccc(-c2cccc(C(=O)N(C)C)c2)cc1S(=O)(=O)Nc1cccc(O[C@H]2CCN(C(=O)c3cccnc3C(F)(F)F)C2)c1 [Example 23, 4′-methoxy-N,N-dimethyl-3′-((3-(((3S)-1-((2-(trifluoromethyl)pyridin-3-yl)carbonyl)pyrrolidin-3-yl)oxy)phenyl)sulfamoyl)biphenyl-3-carboxamide] | 88
COc1ccc(-c2cccc(C(=O)N(C)C)c2)cc1S(=O)(=O)Nc1cccc(O[C@H]2CCN(C(=O)c3cccc4c3OCC4)C2)c1 [Example 28, 3′-((3-(((3S)-1-(2,3-dihydro-1-benzofuran-7-ylcarbonyl)pyrrolidin-3-yl)oxy)phenyl)sulfamoyl)-4′-methoxy-N,N-dimethylbiphenyl-3-carboxamide] | 101
COc1ccc(-c2cccc(C(=O)N(C)C)c2)cc1S(=O)(=O)Nc1cccc(O[C@H]2CCN(C(=O)c3cnn(C)c3C(F)(F)F)C2)c1 [Example 29, 4′-methoxy-N,N-dimethyl-3′-((3-(((3S)-1-((1-methyl-5-(trifluoromethyl)-1H-pyrazol-4-yl)carbonyl)pyrrolidin-3-yl)oxy)phenyl)sulfamoyl)biphenyl-3-carboxamide] | 98
COc1ccc(N2CCCCC2=O)cc1S(=O)(=O)Nc1cccc(O[C@H]2CCN(C(=O)c3c(C)cccc3C)C2)c1 [Example 30, N-(3-(((3S)-1-(2,6-dimethylbenzoyl)pyrrolidin-3-yl)oxy)phenyl)-2-methoxy-5-(2-oxopiperidin-1-yl)benzenesulfonamide] | 89
COc1ccc(N2CCOCC2)cc1S(=O)(=O)Nc1cccc(O[C@H]2CCN(C(=O)c3c(C)cccc3C)C2)c1 [Example 31, N-(3-(((3S)-1-(2,6-dimethylbenzoyl)pyrrolidin-3-yl)oxy)phenyl)-2-methoxy-5-(morpholin-4-yl)benzenesulfonamide] | 75
COc1ccc(-c2cccc(C(=O)N(C)C)c2)cc1S(=O)(=O)Nc1cccc(O[C@H]2CCN(C(=O)c3cc(C)ccc3C)C2)c1 [Example 32, 3′-((3-(((3S)-1-(2,5-dimethylbenzoyl)pyrrolidin-3-yl)oxy)phenyl)sulfamoyl)-4′-methoxy-N,N-dimethylbiphenyl-3-carboxamide] | 92
COc1ccc(C2CCCCN2C(C)=O)cc1S(=O)(=O)Nc1cccc(O[C@H]2CCN(C(=O)c3c(C)cccc3C)C2)c1 (stereo partly drawn) [Example 33, 5-(1-acetylpiperidin-2-yl)-N-(3-(((3S)-1-(2,6-dimethylbenzoyl)pyrrolidin-3-yl)oxy)phenyl)-2-methoxybenzenesulfonamide] | 89
Cc1cccc(C)c1C(=O)N1CC[C@H](Oc2cccc(NS(=O)(=O)c3cccc(-c4cccc(C(=O)N(C)C)c4)c3)c2)C1 [Example 34, 3′-((3-(((3S)-1-(2,6-dimethylbenzoyl)pyrrolidin-3-yl)oxy)phenyl)sulfamoyl)-N,N-dimethylbiphenyl-3-carboxamide] | 94
CCCS(=O)(=O)Nc1cccc(O[C@H]2CCN(C(=O)c3c(C)cccc3C)C2)c1 [Example 36, N-(3-(((3S)-1-(2,6-dimethylbenzoyl)pyrrolidin-3-yl)oxy)phenyl)propane-1-sulfonamide] | 23
COc1ccc(N2CCCC3(CCCCO3)C2)cc1S(=O)(=O)Nc1cccc(O[C@H]2CCN(C(=O)c3c(C)cccc3C)C2)c1 (stereo partly drawn) [Example 41, N-(3-(((3S)-1-(2,6-dimethylbenzoyl)pyrrolidin-3-yl)oxy)phenyl)-2-methoxy-5-(1-oxa-8-azaspiro[5.5]undec-8-yl)benzenesulfonamide] | 97

Other lines, results leading:

OX2R agonist activity (3 μM, %) [%] | Compound
97 | COc1ccc(-c2cccc(C(=O)N(C)C)c2)cc1S(=O)(=O)Nc1cccc(O[C@H]2CCN(C(=O)c3cnn(C)c3-c3ccccc3)C2)c1 [Example 13, 4′-methoxy-N,N-dimethyl-3′-((3-(((3S)-1-((1-methyl-5-phenyl-1H-pyrazol-4-yl)carbonyl)pyrrolidin-3-yl)oxy)phenyl)sulfamoyl)biphenyl-3-carboxamide]
90 | COc1ccccc1CC(=O)N1CC[C@H](Oc2cccc(NS(=O)(=O)c3cc(-c4cccc(C(=O)N(C)C)c4)ccc3OC)c2)C1 [Example 17, 4′-methoxy-3′-((3-(((3S)-1-((2-methoxyphenyl)acetyl)pyrrolidin-3-yl)oxy)phenyl)sulfamoyl)-N,N-dimethylbiphenyl-3-carboxamide]
97 | COc1ccc(-c2cccc(C(=O)N(C)C)c2)cc1S(=O)(=O)Nc1cccc(O[C@H]2CCN(C(=O)c3ccc(C)cc3C)C2)c1 [Example 25, 3′-((3-(((3S)-1-(2,4-dimethylbenzoyl)pyrrolidin-3-yl)oxy)phenyl)sulfamoyl)-4′-methoxy-N,N-dimethylbiphenyl-3-carboxamide]
99 | Cc1cccc(C)c1C(=O)N1CC[C@H](Oc2cccc(NS(=O)(=O)c3cc(-c4cccc(C(=O)N(C)C)c4)ccc3F)c2)C1 [Example 35, 3′-((3-(((3S)-1-(2,6-dimethylbenzoyl)pyrrolidin-3-yl)oxy)phenyl)sulfamoyl)-4′-fluoro-N,N-dimethylbiphenyl-3-carboxamide]
35 | Cc1cccc(C)c1C(=O)N1CC[C@H](Oc2cccc(NS(=O)(=O)c3ccccc3Cl)c2)C1 [Example 37, 2-chloro-N-(3-(((3S)-1-(2,6-dimethylbenzoyl)pyrrolidin-3-yl)oxy)phenyl)benzenesulfonamide]
44 | Cc1cccc(C)c1C(=O)N1CC[C@H](Oc2cccc(NS(=O)(=O)c3sccc3Cl)c2)C1 [Example 38, 3-chloro-N-(3-(((3S)-1-(2,6-dimethylbenzoyl)pyrrolidin-3-yl)oxy)phenyl)thiophene-2-sulfonamide]
97 | COc1ccc(N2CCCC(C(=O)N3CCCC3)C2)cc1S(=O)(=O)Nc1cccc(O[C@H]2CCN(C(=O)c3c(C)cccc3C)C2)c1 (stereo partly drawn) [Example 42, N-(3-(((3S)-1-(2,6-dimethylbenzoyl)pyrrolidin-3-yl)oxy)phenyl)-2-methoxy-5-(3-(pyrrolidin-1-ylcarbonyl)piperidin-1-yl)benzenesulfonamide]
